Test results taken from patent EP3494850B1, “WET WIPE WITH HYDROXYACETOPHENON” (Dr. Schumacher GmbH, priority 2017, dated 2019).

Tested on: Haut der Probanden
Assay: Patch test for skin tolerance on 50 subjects
Assay type: in vivo
Conditions: 48 h under occlusion on the back, read at 48 h and 72 h (erythema, scaling, fissures)
Excerpt: Zur Prüfung der Hautverträglichkeit des Tränkungsmittels, mit dem erfindungsgemäße Feuchttücher getränkt sind, wird ein Patch-Test an 50 Probanden durchgeführt. Mit einem Patch-Test können dermatologische und kosmetische Produkte auf ihr irritatives Potential untersucht werden. Bei den 50 ausgewählten Personen im Alter zwischen 18 und 69 Jahren handelte es sich um 28 Hautgesunde, 2 Atopiker, 2 Allergiker und 18 Personen mit empfindlicher Haut.
Für den Patch-Test wurde eine gemäß der in Tabelle 1 (Beispiel 1) angegebenen Rahmenrezeptur zusammengesetzte O/W-Emulsion für 48 Stunden unverdünnt auf den Rücken der Probanden mit Hilfe von quadratischen Kunststoffkammern (allergEAZE® clear Patch Test Chambers; SmartPractice®, Phoenix, AZ) unter Okklusion appliziert. Als Positivkontrolle diente der Modellschadstoff Natriumlaurylsulfat (SDS) in einer Konzentration von 1 % in Wasser. Als negative Kontrolle diente Wasser.
Die Bewertung der Testreaktionen erfolgte nach 48 Stunden (30 Minuten nach der Entfernung der Okklusion) sowie nach 72 Stunden, wobei die Haut der Probanden jeweils hinsichtlich Erythem, Schuppung und Fissuren untersucht wurde.

For `CCCCCCCCCCCCOS(=O)(=O)O` [SDS, Natriumlaurylsulfat], the “Testpersonen mit Reaktion im Patch-Test” value was 14 Testpersonen.
